Experimental data reported in ChEMBL document CHEMBL2434830, “Inhibitory constituents from the aerial parts of Polygala tenuifolia on LPS-induced NO production in BV2 microglia cells” (Bioorg Med Chem Lett, 2013).

How the values were obtained:
BV-2 [1] = experiment: Cytotoxicity against mouse BV2 cells assessed as cell viability at 50 uM by MTT assay; assay type: cell-based; settings: bv-2, 50 µM
BV-2 [2] = experiment: Antiinflammatory activity in mouse BV2 cells assessed as inhibition of LPS-induced NO production after 24 hrs by Griess assay; assay type: functional, cell-based; settings: BV-2, 24 h

Structure (SMILES) | Activity (BV-2 [1]) | IC50 (BV-2 [2])
COc1c(O)cc2oc3ccc(O)cc3c(=O)c2c1O | Toxic | 
COc1cc2oc3cc(O)c(O)cc3c(=O)c2c(O)c1OC | Toxic | 
O=c1c2cc(O)ccc2oc2cc3c(c(O)c12)OCO3 |  | 20.6 µM
O=c1c2cc(O)ccc2oc2c(O[C@@H]3O[C@H](CO)[C@@H](O)[C@H](O)[C@H]3O)ccc(O)c12 |  | 38.4 µM
O=c1c2ccc(O)cc2oc2cccc(O)c12 | Toxic | 
COc1ccc(O)c2c(=O)c3cc(O)ccc3oc12 |  | 7.4 µM
COc1cc2c(=O)c3c(O)cc(O)cc3oc2cc1O [ALLOATHYRIOL] |  | > 100 µM
COc1ccc2c(c1)c(CC(=O)O)c(C)n2C(=O)c1ccc(Cl)cc1 [INDOMETHACIN] |  | 7.1 µM
O=c1c2cc(O)c(O)cc2oc2cc(O)c([C@@H]3O[C@H](CO)[C@@H](O)[C@H](O)[C@H]3O)c(O)c12 [MANGIFERIN] |  | 38.5 µM
